Assays:
cIAP1-BIR3 = cIAP1-BIR3 (Homo sapiens, UniProt Q13490); experiment: Biacore SPR solution competition binding assay vs smac7mer peptide, cIAP1-BIR3; conditions: SPR competition with captured smac7mer peptide; 6 nM cIAP1-BIR3; 25° C.; read-out: CIAP-BIR3 Binding Biacore (Competitive) EC50
Excerpt: (§1) The compounds described herein above were profiled using a cellular assay (using Panc3.27 tumor cells) and a binding assay to determine the competition between the compounds of the present invention and smac7mer peptide for XIAP-BIR3 and cIAP1-BIR3 binding groove occupancy.
(§2) The present method includes utility of a Surface plasmon resonance (SPR)-based biosensor (Biacore™, GE Healthcare, Uppsala, Sweden) to examine competition between the compounds of the present invention and smac7mer peptide for XIAP-BIR3 and cIAP1-BIR3 binding groove occupancy.
(§3) Biacore™ utilizes the phenomenon of surface plasmon resonance (SPR) to detect and measure binding interactions. In a typical Biacore experiment, one of the interacting molecules is immobilized on a flexible dextran matrix while the interacting partner is flowed over the derivatized surface. A binding interaction results in an increase in mass on the sensor surface and a corresponding direct change in the refractive index of the medium in the vicinity of the sensor surface. Changes in refractive index or signal are recorded in resonance units (R.U.) Signal changes due to association and dissociation of complexes are monitored in a non-invasive manner, continuously and in real-time, the results of which are reported in the form of a sensorgram.
(§4) Biacore™ T100 (GE Healthcare, Uppsala, Sweden) was used to conduct all experiments reported herein. Sensor surface preparation and interaction analyses were performed at 25° C. Buffer and Biacore reagents were purchased from GE Healthcare. Running buffer containing 10 mM Hepes, pH7.4, 150 mM sodium chloride, 1.25 mM Dithiothreitol, 2% Dimethyl sulfoxide and 0.05% polysorbate 20 was utilized throughout all experiments.
(§5) Biotinylated smac7mer peptide was diluted to 10 nM in running buffer and captured onto a sensor surface pre-derivatized with streptavidin (sensor chip SA) towards peptide surface densities in the range 40-100 R.U. Peptide captured surfaces were blocked with 500 μM PEO2-Biotin (Thermo Scientific).
(§6) Interaction analyses were performed by first equilibrating each compound within a six point seven fold compound dilution series in the range 1 μM to 0.06 nM with either 100 nM XIAP-BIR3 or 6 nM cIAP1-BIR3 for at least one hour during instrument start-up procedures. Protein compound mixtures were then injected over reference and smac7mer peptide surfaces in series for 60 seconds at a flow-rate of 60 μL/min. Surface regeneration was performed at the end of each analysis cycle by a 30 second injection of 10 mM Glycine, pH 2.5, 1M Sodium Chloride, 0.05% polysorbate 20. Additionally, control compound samples and control XIAP-BIR3 or cIAP1-BIR3 samples were prepared and run at regular intervals to monitor surface and assay performance.
(§7) Data analyses were carried out using Biacore™ T100 evaluation software v2.0 to validate assay quality. Binding level report points were plotted versus logarithmic compound concentration values and analyzed in Graphpad prism 5 via non-linear regression using a one-site competition model. EC50 values were generated and used as a measure of inhibitor potency.

XIAP-BIR3 = XIAP-BIR3 (Homo sapiens, UniProt P98170); experiment: Biacore SPR solution competition binding assay vs smac7mer peptide, XIAP-BIR3; conditions: SPR competition with captured smac7mer peptide; 100 nM XIAP-BIR3; 25° C.; read-out: XIAP-BIR3 Binding Biacore (Competitive) EC50
Chain of XIAP-BIR3 (P98170 241-356 limits assumed): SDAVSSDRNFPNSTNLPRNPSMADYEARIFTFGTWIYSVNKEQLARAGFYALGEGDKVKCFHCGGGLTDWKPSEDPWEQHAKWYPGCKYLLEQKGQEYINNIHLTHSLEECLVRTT
Excerpt: as §1, §2, §3, §4, §5, §6, §7

Panc3.27 tumor cells = experiment: Cellular assay: Panc3.27 tumor cell proliferation (Cell Titer Glo); assay type: cell-based; conditions: Panc3.27 cells, 4000 cells per well, 72 hour growth, CTG readout, percent control growth; read-out: PANC proliferation IC50
Protocol: as §1
Cellular Assay—Treatment of Panc3.27 Tumor Cells with Dimeric IAP Antagonists
On day one adherent Panc3.27 cells are plated into two 96-well, clear, flat bottom plates. All wells in row A contain 90 uL of media. All wells in rows B-G contain a total volume of 90 uL per well and 4000 cells per well for Panc3.27 cell lines. Plates are then incubated overnight for 18 hours at 37° C., 5% CO2.
On day two cells are treated with the compounds of formula M-L-M′. Treatments are done in triplicate. The compounds are first serially diluted in DMSO and then added to media giving a final concentration of 0.2% DMSO when added to cells. Cells are treated with 10 uL of serially diluted compounds of formula M-L-M′ at a final concentration of 1000 nM, 200 nM, 40 nM, 8 nM, 1.6 nM, 0.32 nM, 0.06 nM, 0.013 nM, 0.0026 nM, and one untreated well. Plate two is used as a time zero plate.
To measure cell viability 50 uL of Cell Titer Glo (CTG) solution is added to row A, media only and B, cells and media. CTG is purchased from Promega Corporation catalog number G7573. The solution is prepared according to manufacturer's instructions. CTG measures the amount of ATP released from viable cells that is proportional to the number of cells in each well. After incubating for ten minutes with CTG plates are measured on a luminescent reader at 700 nm wavelength. Read time is approximately one second per well for a 96-well plate.
On day five 50 uL of CTG is added to plate one, rows A-G, incubated for 10 minutes at room temperature and read on a luminescent reader. Raw data is adjusted to account for the time zero plate as well as background noise. Triplicate values are averaged and percent control growth is calculated. Percent control growth is calculated using the following logical test: If well read data point (a) is greater than time zero data point (t=0), then 100*[(a)−(t=0)]/[(72 hour total growth)−(t=0)], OR 100*[(a)−(t=0)]/[(t=0)]. Data is represented by line graph with the concentration of compound on the x axis and percent control growth on the y axis.

Chain of cIAP1-BIR3 (Q13490 253-363 limits assumed): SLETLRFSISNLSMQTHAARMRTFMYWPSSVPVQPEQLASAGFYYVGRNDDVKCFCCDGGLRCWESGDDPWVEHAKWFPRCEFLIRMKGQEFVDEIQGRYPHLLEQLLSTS

CN[C@@H](C)C(=O)N[C@H](C(=O)N1CCC[C@H]1c1cncc(-c2ccc(F)c(C(=O)NCc3ccc(CNC(=O)c4cc(-c5cncc([C@@H]6CCCN6C(=O)[C@@H](NC(=O)[C@H](C)NC)C6CCCCC6)c5)ccc4F)cc3)c2)c1)C1CCCCC1 [Example 2B-1, (S,S,S)—N,N′-(1,4-phenylenebis(methylene))bis(5-(5-((S)-1-((S)-2-cyclohexyl-2-((S)-2-(methylamino)propanamido)acetyl)pyrrolidin-2-yl)pyridin-3-yl)-2-fluorobenzamide)]
EC50 (cIAP1-BIR3): 770 to 790 pM
EC50 (XIAP-BIR3): 347000 to 353000 pM
IC50 (Panc3.27 tumor cells): < 2.6 pM

Reference: patent US20130266590A1, “DIMERIC IAP INHIBITORS” (NOVARTIS AG, priority 2010, published 2013)
